# “Also recorded” adds a separate entry of the source. Bridge positions count the residues as written; N and C are the ends. Square brackets hold non-standard residues; d marks the D form. Peptide text beside a SMILES is read from it. R5 = C=CCCC[C@@](C)(N)C(=O)O; S5 = C=CCCC[C@](C)(N)C(=O)O
# What was measured:
# [1] = Far-UV circular dichroism, α-helical content; format: physicochemical; details: CD, 10 mM phosphate buffer pH 7.5, 50 μM peptide, 25°C
# Description: The circular dichroism spectra were acquired on a Chirascan spectropolarimeter. The samples were prepared in 10 mM phosphate buffer, pH 7.5, at a peptide concentration of 50 μM. Data were recorded at 25°C by step scan from 180 nm to 260 nm in a 0.5-mm path length quartz cell using 1-nm wavelength increments and a response time of 1 s. The data were converted to per residue molar ellipticity units [θ] (degree per square centimeter per decimole per residue) and smoothed using the Igor Pro software. The percentage of helicity was calculated as described previously ([35]).
# [2] = test system: rHRSV-mCherry in HEp-2 cells; assay: rHRSV-mCherry inhibition assay; format: cell-based, human respiratory syncytial virus
# Outline: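 HEp-2 cells infected at MOI 0.2 with rHRSV-mCherry preincubated 15–20 min with serially diluted peptide, peptide kept in 2% FBS medium for 48 h at 37°C. Replication read as mCherry fluorescence (ex 580/em 620 nm), normalized to untreated infected cells; duplicates, curves fitted.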
# [3] = Histological analysis of lungs; format: in vivo, BALB/c mice
# Description: In order to track the infection, we used the recombinant virus rHRSV-Luc, which was previously shown to allow in vivo imaging studies of RSV replication and spreading and constitutes a powerful and convenient tool for the evaluation of drug efficiency against RSV in the mouse model ([24]). […] Mice were anesthetized at day 3 p.i. and observed alive using the IVIS imaging system 5 min after i.n. injection of D-luciferin. […] At day 3 p.i., a second dose of the peptide was administered to the mice, and the bioluminescence was measured at day 5 p.i. […] At day 7 p.i., a time corresponding to the end of the infection in mice, the animals were sacrificed and the lungs were collected in order to perform a histological analysis. […]
# Mice were sacrificed at day 7 p.i., the chest cavity was opened, and the lungs were perfused intratracheally with 4% paraformaldehyde (PFA) in PBS. […] The lungs were embedded in paraffin, and 5-μm sections were cut, stained with hematoxylin-eosin-saffron (HES), and evaluated microscopically. Qualitative histological changes were described and when applicable were scored semiquantitatively using a three-point scale from 0 to 2 (0, none; 1, mild; 2, marked), focusing on histological characterization of lesions (interstitial pneumonia, respiratory epithelial cell apoptosis, and hyperplasia) and inflammation.
# [4] = Temperature-dependent CD (T ramp), oligomeric state; format: physicochemical; details: 25 and 50 μM peptide, 25°C to 90°C in 5°C increments
# Description: The temperature was increased from 25°C to 90°C in 5°C increments. […] Next, HEp-2 cells were infected with a recombinant RSV expressing the mCherry reported gene ([24]), and the inhibitory activity of the double-stapled peptides was quantified by fluorescence readout.
# B) […]. The cell holding the sample was heating at the desired temperature and the CD spectra was measured as described in material and methods. The temperature was increased from 25 °C to 90 °C by 5 °C increments.
# Panel C) and D) are the CD curve performed at 25 °C prior to increase the temperature (unheated) and after letting the sample heated at 90 °C (heated) cool down to 25 °C. […]
structure (smiles),measurement,setting,value
"CC[C@H](C)[C@@H]1NC(=O)[C@H](Cc2ccccc2)NC(=O)[C@@](C)(NC(=O)[C@H](CC(C)C)NC(=O)[C@H](CO)NC(=O)[C@]2(C)CCCC=CCCC[C@@](C)(NC(=O)[C@H](CCC(=O)O)NC(C)=O)C(=O)N[C@@H]([C@@H](C)CC)C(=O)N[C@@H](CC(N)=O)C(=O)N2)CCCC=CCCC[C@@](C)(C(=O)N[C@@H](CO)C(=O)N[C@@H](CC(=O)O)C(=O)N[C@@H](CCC(=O)O)C(=O)N[C@@H](CC(C)C)C(=O)N[C@@H](CC(C)C)C(=O)N[C@@H](Cc2c[nH]cn2)C(=O)N[C@@H](CC(N)=O)C(=O)N[C@H](C(N)=O)C(C)C)NC(=O)[C@H](CCCNC(=N)N)NC1=O [Peptide 4ca] (Ac-E[R5]IN[S5]SL[S5]FIR[S5]SDELLHNV-NH2; staple 2-5, 8-12)",% Helicity,[1]; Table 2,>100%
same,% Helicity,[1]; Table 3 (Ala scan),85%
same,EC50,"[2]; HEp-2, rHRSV-mCherry MOI 0.2, addition of peptide after infection of cells, 48 h p.i.",8.3 µM
same,EC50,"[2]; HEp-2, rHRSV-mCherry MOI 0.2, preincubation of the virus with peptide prior to cell infection, 48 h p.i.",0.86 µM
same,EC50,"[2]; HEp-2, rHRSV-mCherry MOI 0.2, preincubation of virus with peptide and peptide maintained in medium after infection, 48 h p.i.",0.47 µM
same,increase of antiviral potency relative to T118,"[2]; HEp-2, rHRSV-mCherry, EC50 versus T118 EC50 6.33 μM",11 fold
same,EC50,"[2]; HEp-2 cells, RSV-Cherry MOI 0.2, peptide and virus removed after infection and fresh peptide added, mCherry fluorescence 48 h p.i., at least twice in duplicate",0.59 ± 0.13 µM
same,EC50,"[2]; Table 3 (Ala scan), HEp-2 cells, rHRSV-mCherry MOI 0.2, 2-fold serial dilutions (11 dilutions), duplicate, ± SD of fit",0.78 ± 0.06 µM
same,histological changes in lung parenchyma (toxicity),"[3]; 4ca-inoculated versus mock-inoculated noninfected mice, i.n. 50 μl at 50 μM, day 7, HES staining",no histological changes
same,interstitial pneumonia after RSV infection,"[3]; RSV-infected mice treated i.n. with 4ca, day 7 p.i., HES staining",no interstitial pneumonia was observed
same,conformational change / aggregation on temperature ramping,[4],No significant conformational change; also recorded: does not aggregate

# Source: publication PMC5365662, “A Short Double-Stapled Peptide Inhibits Respiratory Syncytial Virus Entry and Spreading” (Antimicrobial Agents and Chemotherapy, 2017)
